Earlier results on two compounds are cited in patent US5152997A, “Method and device for transdermally administering testosterone across nonscrotal skin at therapeutically effective levels” (Theratech, Inc., priority 1991, dated 1992).

For data set [1] the following is noted: e.g., neck, back, chest, arms; for delivery of 5-10 mg/day through a limited area.

For the compound `C[C@]12CC[C@H]3[C@@H](CCC4=CC(=O)CC[C@@]43C)[C@@H]1CC[C@@H]2O` [testosterone], in data set [1], the “permeability to testosterone of skin areas normally used for transdermal delivery” value is reported as “too low to permit delivery of the amounts of testosterone needed for therapy”. For the same compound, the “degradation by the liver” value (administered orally) is recorded as “rapidly degraded by the liver”. With `CCCCCCCCCCC(=O)O[C@H]1CC[C@H]2[C@@H]3CCC4=CC(=O)CC[C@]4(C)[C@H]3CC[C@]12C` [testosterone undecanoate], the “systemic availability of testosterone” value (oral administration) was “provides systemically available testosterone”.
